Holding throughout (type): in vivo, Mycosphaerella graminicola on wheat plants (variety Yuma)
Experiment [1] has as its system Mycosphaerella graminicola; Anamorph: Septoria tritici; Bayer Code SEPTTR (standard laboratory isolate, SI SEPTTR). Briefly: Type A (high volume) assay, leaf blotch of wheat, standard laboratory SEPTTR isolate (SI SEPTTR). The following applies: Zymoseptoria tritici. The essentials: (§1)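 Wheat seedlings (Yuma, first leaf emerged) sprayed with acetone/Triton X-100 solutions (Type A) or 10% EC diluted in 0.1% Trycol at 200 L/ha (Type B), inoculated before or after spraying. Inoculated plants held 3 days at 20 °C, 100% RH, then greenhouse; % disease control from severity versus untreated plants.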

Experiment [2] has the same test system. The experiment can be described thus: Type B (low volume, EC formulation, track sprayer 200 L/ha) assay, leaf blotch of wheat, standard laboratory SEPTTR isolate (SI SEPTTR). The conditions noted are these: Zymoseptoria tritici, 72 h. Summed up: as §1
Experiment [3] can be described thus: Type B (low volume, EC formulation, track sprayer 200 L/ha) assay, leaf blotch of wheat, SEPTTR field isolate (FI SEPTTR). The following applies: Zymoseptoria tritici, 72 h. Summed up:
as §1

[4] abbreviates: 24 h, standard laboratory isolate, high volume, 50 ppm, 1 Day Protectant, wheat (Yuma), read-out: Disease Control, SI SEPTTR Type A Assay (50 ppm) 1 DP.
Setting [5] is: 72 h, standard laboratory isolate, high volume, 50 ppm, 3 Day Curative, wheat (Yuma), read-out: Disease Control, SI SEPTTR Type A Assay (50 ppm) 3 DC.
The mark [6] stands for this setting: standard laboratory isolate, low volume EC, 100 g/ha, 3 Day Curative, wheat (Yuma), read-out: Disease Control, SI SEPTTR Type B Assay (100 g/ha) 3 DC.
Setting [7] is: standard laboratory isolate, low volume EC, 100 g/ha, 3 Day Protectant, wheat (Yuma), read-out: Disease Control, SI SEPTTR Type B Assay (100 g/ha) 3 DP.
Where [8] appears, read: field isolate, low volume EC, 100 g/ha, 3 Day Curative, wheat (Yuma), read-out: Disease Control, FI SEPTTR Type B Assay (100 g/ha) 3 DC.
Where [9] appears, read: field isolate, low volume EC, 100 g/ha, 3 Day Protectant, wheat (Yuma), read-out: Disease Control, FI SEPTTR Type B Assay (100 g/ha) 3 DP.

Like-named read-outs stand apart in the source and are kept apart here. Where only a bound is given, the exact number is not on record here.

For `CC(C)(C)C(O)(c1cncnc1)c1ccc(-c2ccc(OC(F)(F)F)cc2)cn1` (stereo not drawn) [Compound 27, 2,2-dimethyl-1-(pyrimidin-5-yl)-1-(5-(4-(trifluoro-methoxy)phenyl)pyridin-2-yl)propan-1-ol], the pest or weed control at 50 ppm in experiment [1] (setting [4]) and in experiment [1] (setting [5]) was 80 to 100% each time. The pest or weed control at 100 g/ha in experiment [2] (setting [6]), in experiment [2] (setting [7]), in experiment [3] (setting [8]) and in experiment [3] (setting [9]) was 80 to 100% throughout.

As for `OC(c1cncnc1)(c1ccc(-c2ccc(OC(F)(F)F)cc2)cn1)C1CC1` (stereo not drawn) [Compound 73], the pest or weed control at 50 ppm in experiment [1] (setting [4]) fell in the range of 80 to 100%. For the same compound, the pest or weed control at 100 g/ha in experiment [2] (setting [6]) is 80 to 100%; in experiment [2] (setting [7]) it was 80 to 100%; in experiment [3] (setting [8]) it was 60 to 79%; in experiment [3] (setting [9]), 60 to 79%.

`CC(C)(C)c1ccc(-c2ccc(C(O)(c3cncnc3)C(C)(C)C)nc2)cc1` (stereo not drawn) [Compound 97]: in experiment [1] (setting [4]), the pest or weed control at 50 ppm lay in the range of 80 to 100%. The pest or weed control at 100 g/ha in experiment [2] (setting [6]), in experiment [2] (setting [7]), in experiment [3] (setting [8]) and in experiment [3] (setting [9]) was 80 to 100% each time.

For `CC(C)C(O)(c1cncnc1)c1ccc(-c2ccc(OCC(F)(F)F)nc2)cn1` (stereo not drawn) [Compound 64], the pest or weed control at 50 ppm in experiment [1] (setting [4]) and in experiment [1] (setting [5]) was 80 to 100% in each case. The pest or weed control at 100 g/ha in experiment [2] (setting [6]) lay within 80 to 100%; in experiment [2] (setting [7]), 80 to 100%; in experiment [3] (setting [8]), 60 to 79%; in experiment [3] (setting [9]), 80 to 100%.

With `CC(C)(C)C(O)(c1cncnc1)c1ccc(-c2ccc(OC(F)(F)F)cc2F)cn1` (stereo not drawn) [Compound 124, 1-(5-(2-fluoro-4-(trifluoromethoxy)phenyl)pyridin-2-yl)-2,2-dimethyl-1-(pyrimidin-5-yl)propan-1-ol], the pest or weed control at 50 ppm in experiment [1] (setting [4]) lay in the range of 80 to 100%. The pest or weed control at 100 g/ha in experiment [2] (setting [6]), in experiment [2] (setting [7]), in experiment [3] (setting [8]) and in experiment [3] (setting [9]) was 80 to 100% throughout.

On to `Cc1cc(-c2ccc(CC(F)(F)F)nc2)cnc1C(O)(c1cncnc1)C(C)(C)C` (stereo not drawn) [Compound 131], for which the pest or weed control at 50 ppm in experiment [1] (setting [4]) lay in the range of 80 to 100%. The pest or weed control at 100 g/ha in experiment [2] (setting [6]) was 80 to 100%; in experiment [2] (setting [7]), 60 to 79%; in experiment [3] (setting [8]) it was 60 to 79%; in experiment [3] (setting [9]) it was 60 to 79%.

`CC(C)(C)C(O)(c1cncnc1)c1ccc(-c2ccc(SC(F)(F)F)cc2)cn1` (stereo not drawn) [Compound 125]: in experiment [1] (setting [4]), the pest or weed control at 50 ppm fell in the range of 80 to 100%. The pest or weed control at 100 g/ha in experiment [2] (setting [6]) fell in the range of 80 to 100%; in experiment [2] (setting [7]), 80 to 100%; in experiment [3] (setting [8]), 80 to 100%; in experiment [3] (setting [9]), 60 to 79%.

For the compound `Cn1cc(-c2ccc(C(O)(c3cncnc3)C(C)(C)C)nc2)cn1` (stereo not drawn) [Compound 122], the pest or weed control at 50 ppm in experiment [1] (setting [4]) lay in the range of 80 to 100%. For the same compound, the pest or weed control at 100 g/ha in experiment [2] (setting [6]) lay within 80 to 100%; in experiment [2] (setting [7]), 80 to 100%; in experiment [3] (setting [8]), 60 to 79%; in experiment [3] (setting [9]), 60 to 79%.

Regarding `OC(c1cccnc1)(c1ccc(-c2ccc(OC(F)(F)F)cc2)cn1)c1ccc(F)cc1F` (stereo not drawn) [Compound 91], the pest or weed control at 50 ppm in experiment [1] (setting [4]) was in the range of 80 to 100%. Further, the pest or weed control at 100 g/ha was 60 to 79% in experiment [2] (setting [6]), 80 to 100% in experiment [2] (setting [7]), 40 to 59% in experiment [3] (setting [8]) and 80 to 100% in experiment [3] (setting [9]).

For `Cc1cc(OC(F)(F)F)ccc1-c1ccc(C(O)(c2cccnc2)C(C)(C)C)nc1` (stereo not drawn) [Compound 146], the pest or weed control at 50 ppm in experiment [1] (setting [4]) fell in the range of 80 to 100%. In addition, the pest or weed control at 100 g/ha in experiment [2] (setting [6]) lay within 80 to 100%; in experiment [2] (setting [7]) it was 80 to 100%; in experiment [3] (setting [8]), 80 to 100%; in experiment [3] (setting [9]), 60 to 79%.

For `CC(C)(C)C(O)(c1cncnc1)c1ccc(-c2ccc(OC3CC3)cc2)cn1` (stereo not drawn) [Compound 102], the pest or weed control at 50 ppm in experiment [1] (setting [4]) lay in the range of 80 to 100%. Also, the pest or weed control at 100 g/ha in experiment [2] (setting [6]), in experiment [2] (setting [7]), in experiment [3] (setting [8]) and in experiment [3] (setting [9]) was 80 to 100% in each case.

In the case of `CCC(C)(C)C(O)(c1cncnc1)c1ccc(-c2ccc(OC(F)(F)F)cc2)cn1` (stereo not drawn) [Compound 93, 2,2-dimethyl-1-pyrimidin-5-yl-1-[5-[4-(trifluoromethoxy)phenyl]-2-pyridyl]butan-1-ol], the pest or weed control at 50 ppm in experiment [1] (setting [4]) lay in the range of 80 to 100%. Moreover, the pest or weed control at 100 g/ha in experiment [2] (setting [6]) fell in the range of 80 to 100%; in experiment [2] (setting [7]) it was 80 to 100%; in experiment [3] (setting [8]), 60 to 79%; in experiment [3] (setting [9]), 80 to 100%.

For `Cc1ncncc1C(O)(c1ccc(-c2ccc(OC(F)(F)F)cc2)cn1)C(C)(C)C` (stereo not drawn) [Compound 118], the pest or weed control at 50 ppm in experiment [1] (setting [4]) fell in the range of 80 to 100%. For the same compound, the pest or weed control at 100 g/ha in experiment [2] (setting [6]), in experiment [2] (setting [7]), in experiment [3] (setting [8]) and in experiment [3] (setting [9]) was 80 to 100% each time.

Turning to `CC(C)(C)C(O)(c1cncnc1)c1ccc(-c2ccc(C(F)(F)F)cc2)cn1` (stereo not drawn) [Compound 96], the pest or weed control at 50 ppm in experiment [1] (setting [4]) was 80 to 100%. Besides, the pest or weed control at 100 g/ha in experiment [2] (setting [6]), in experiment [2] (setting [7]), in experiment [3] (setting [8]) and in experiment [3] (setting [9]) was 80 to 100% each time.

For the compound `OC(Cc1ccc(Cl)cc1F)(c1cncnc1)c1ccc(Oc2ccc(Cl)cc2)cn1` (stereo not drawn) [Compound 41, 2-(4-chloro-2-fluorophenyl)-1-(5-(4-chlorophenoxy)-pyridin-2-yl)-1-(pyrimidin-5-yl)ethanol], the pest or weed control at 50 ppm in experiment [1] (setting [4]) and in experiment [1] (setting [5]) was 80 to 100% each time. Further, the pest or weed control at 100 g/ha in experiment [2] (setting [6]) is 80 to 100%; in experiment [2] (setting [7]), 80 to 100%; in experiment [3] (setting [8]), less than 40%; in experiment [3] (setting [9]) it was 60 to 79%.

For `CC(C)(C)C(O)(c1cncnc1)c1ccc(-c2ccc([Si](C)(C)C)cc2)cn1` (stereo not drawn) [Compound 121], the pest or weed control at 50 ppm in experiment [1] (24 h, read-out: Disease Control, SI SEPTTR Type A Assay (50 ppm) 1 DP) was in the range of 80 to 100%. Besides, the pest or weed control at 100 g/ha in experiment [2] (read-out: Disease Control, SI SEPTTR Type B Assay (100 g/ha) 3 DC) is 80 to 100%; in experiment [2] (read-out: Disease Control, SI SEPTTR Type B Assay (100 g/ha) 3 DP), 80 to 100%; in experiment [3] (read-out: Disease Control, FI SEPTTR Type B Assay (100 g/ha) 3 DC), 80 to 100%; in experiment [3] (read-out: Disease Control, FI SEPTTR Type B Assay (100 g/ha) 3 DP), 60 to 79%.

As to `Cc1cc(-c2ccc(C(O)(c3cncnc3)C(C)(C)C)nc2)ccc1OC(F)(F)F` (stereo not drawn) [Compound 116], the pest or weed control at 50 ppm in experiment [1] (setting [4]) was in the range of 60 to 79%. The pest or weed control at 100 g/ha is 80 to 100% in experiment [2] (setting [6]), 80 to 100% in experiment [2] (setting [7]), 80 to 100% in experiment [3] (setting [8]) and 60 to 79% in experiment [3] (setting [9]).

Consider `CC(C)(C)C(O)(c1cccnc1)c1ccc(-c2ccc(OCC(F)(F)F)cc2)cn1` (stereo not drawn) [Compound 92], for which the pest or weed control at 50 ppm in experiment [1] (setting [4]) was in the range of 80 to 100%. The pest or weed control at 100 g/ha in experiment [2] (setting [6]), in experiment [2] (setting [7]), in experiment [3] (setting [8]) and in experiment [3] (setting [9]) was 80 to 100% throughout.

With `CC(C)C(O)(Cc1cncnc1)c1ccc(-c2ccc(Cl)cc2)cn1` (stereo not drawn) [Compound 38], the pest or weed control at 50 ppm in experiment [1] (setting [4]) and in experiment [1] (setting [5]) was 80 to 100% throughout. The pest or weed control at 100 g/ha in experiment [2] (setting [6]) was in the range of 80 to 100%; in experiment [2] (setting [7]), 80 to 100%; in experiment [3] (setting [8]), 80 to 100%; in experiment [3] (setting [9]) it was 40 to 59%.

The values are drawn from patent US10167300B2, “Metalloenzyme inhibitor compounds as fungicides” (priority 2014, dated 2019).
